We go through three molecules from BindingDB's records for patent US20250346564 (ARase Therapeutics, 2025).

SMILES strings stand for the structures.

In this experiment the target is Poly(ADP-ribose) glycohydrolase (Homo sapiens, UniProt Q86W56). The experiment in a line: Inhibition of PARG TEMU Assay. The method, then: The ability of the compounds of the Examples to inhibit PARG activity in 4. (trifluoromethyl)umbelliferone (TFMU) assay was determined as described below. PARG inhibitors were added into 384 well plate for a 10-point dose response curve at 1:3 dilutions. TFMU PARG substrate and PARG (250 pM or 2 nM) were then added to the plate to initiate enzymatic reaction. After incubation with the reagent, […] was read. IC50 values were calculated using set control points for 100% inhibition as no enzyme and 0% inhibition 250 pM or 2 nM of PARG enzyme.
Sequence of Poly(ADP-ribose) glycohydrolase (Q86W56 whole entry): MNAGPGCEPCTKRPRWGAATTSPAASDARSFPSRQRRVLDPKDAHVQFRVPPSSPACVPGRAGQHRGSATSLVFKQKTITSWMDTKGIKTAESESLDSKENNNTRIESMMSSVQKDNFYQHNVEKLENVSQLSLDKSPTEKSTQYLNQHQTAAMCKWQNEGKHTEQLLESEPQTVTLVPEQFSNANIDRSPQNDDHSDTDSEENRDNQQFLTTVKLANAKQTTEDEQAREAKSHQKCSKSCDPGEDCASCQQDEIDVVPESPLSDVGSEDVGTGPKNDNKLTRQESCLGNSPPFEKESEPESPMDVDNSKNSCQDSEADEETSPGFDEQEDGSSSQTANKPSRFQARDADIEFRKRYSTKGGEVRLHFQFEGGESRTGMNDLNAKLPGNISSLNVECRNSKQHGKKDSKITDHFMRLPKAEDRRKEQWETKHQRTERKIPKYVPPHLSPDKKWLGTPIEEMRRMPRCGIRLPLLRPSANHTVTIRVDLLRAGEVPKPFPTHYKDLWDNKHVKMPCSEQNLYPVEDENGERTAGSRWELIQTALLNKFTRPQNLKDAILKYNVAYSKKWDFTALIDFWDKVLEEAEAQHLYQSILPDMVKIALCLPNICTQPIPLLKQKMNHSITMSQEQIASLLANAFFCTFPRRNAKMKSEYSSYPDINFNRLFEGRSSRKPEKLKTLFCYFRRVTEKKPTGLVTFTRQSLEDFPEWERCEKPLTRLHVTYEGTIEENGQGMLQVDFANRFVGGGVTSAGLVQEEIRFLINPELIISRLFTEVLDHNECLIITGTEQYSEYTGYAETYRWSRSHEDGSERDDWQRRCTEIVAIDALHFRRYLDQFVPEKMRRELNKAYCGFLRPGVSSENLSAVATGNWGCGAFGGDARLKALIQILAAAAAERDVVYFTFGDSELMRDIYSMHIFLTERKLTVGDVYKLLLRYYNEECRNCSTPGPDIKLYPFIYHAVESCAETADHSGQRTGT
As to `CC[C@@H]1C[C@]1(C)NS(=O)(=O)c1ccc2c(c1)c(=O)n(CC)c(=O)n2CC` [US20250346564, Example 13A], the IC50 was more than 5000 nM.
`CC1(NS(=O)(=O)c2cc(N3CCN(C(=O)N4CCCC4)CC3)c3cnn(-c4nnc(C(F)F)s4)c3c2)COC1` [US20250346564, Example 35] had an IC50 of less than 50 nM.
The molecule `O=C(N1CCCC1)N1CCN(c2cc(S(=O)(=O)NC3(CF)COC3)cc3c2cnn3-c2nnc(C(F)F)s2)CC1` [US20250346564, Example 36] registered an IC50 of less than 50 nM.

A word on the IC50: it is the concentration at which inhibition is half-maximal. Low values mean greater potency, high ones weaker potency.
